Source: patent US7132418B2, “Peptidyl heterocyclic ketones useful as tryptase inhibitors” (Ortho-McNeil Pharmaceutical, Inc., priority 1999, dated 2006)

What was measured:
Bovine type 1 trypsin = biological target: T1, Bovine type 1 trypsin (Bos taurus, UniProt P00760); test: Trypsin IC50 method, chromogenic substrate hydrolysis; assay type: biochemical; settings: 3.2 U/ml bovine type 1 trypsin, 1.0 mM Spectrozyme TRY
T1 construct: purchased Sigma
T1 sequence (P00760 24-246): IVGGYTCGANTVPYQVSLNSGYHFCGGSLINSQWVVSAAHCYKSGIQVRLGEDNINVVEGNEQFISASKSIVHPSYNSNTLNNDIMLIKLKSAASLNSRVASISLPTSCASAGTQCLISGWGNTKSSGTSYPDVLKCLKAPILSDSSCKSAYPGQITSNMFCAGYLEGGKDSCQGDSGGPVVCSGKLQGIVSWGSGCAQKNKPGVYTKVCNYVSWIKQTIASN
Procedure: (§1) The enzyme reaction is started by the addition of enzyme ([E]: 1.0 nM human Lung Tryptase; Cortex Biochem CP3033). Data is collected over a period of 30 min. and the initial rate of substrate hydrolysis (Vo (mOD/min)) is calculated. Inhibition is calculated by comparing to wells containing no inhibitor (vehicle) and IC50s are determined using a four parameter fit logistics model. • Trypsin IC50 Method: Inhibition of trypsin-catalyzed hydrolysis rates were measured using the same method as the tryptase procedure. Bovine type 1 trypsin (Sigma) and Spectrozyme® TRY (Cbo-Gly-D-Ala-Arg-pNA.AcOH, American Diagnostics) replaced their tryptase equivalents at concentrations of 3.2 U/ml trypsin and 1.0 mM Spectrozyme® TRY.

human Lung Tryptase = biological target: T2, human Lung Tryptase; test: Tryptase IC50 method, chromogenic substrate hydrolysis; assay type: biochemical; settings: 1.0 nM human lung tryptase, 500 μM N-p-Tosyl-GLY-PRO-LYS-pNA, 37° C.
T2 construct: 1.0 nM human Lung Tryptase
Procedure: as §1

trypsin = settings: pancreatic agents, comparison values; cited from earlier work
[1] = compared with placebo, 16 mild asthmatics, nebulized dry powder formulation; cited from earlier work

Row | SMILES | IC50 (Bovine type 1 trypsin) [nM] | IC50 (human Lung Tryptase) [nM] | IC50 (trypsin) [nM] | improvement for the late airway response [1] [%] | mean maximum decrease of forced expiratory volume in one second for late airway hyperresponsiveness [1] [%]
1 | CC(=O)N[C@H]1CCC[C@H]1C(=O)NC(CCCNC(=N)N)C(=O)c1nc2ccccc2s1 (stereo partly drawn) [Compound 3, cis-2-Acetylamino-N-[(1S)-4-[(aminoiminomethyl)amino]-1-(2-benzothiazolylcarbonyl)butyl]-1-cyclopentanecarboxamide] | 360 ± 30 | 1700 ± 700 | – | – | –
2 | N=C(N)c1ccc2cc(OC(=O)c3ccc(N=C(N)N)cc3)ccc2c1 [nafamostat] | – | – | 13 | – | –
3 | CN(C)C(=O)COC(=O)Cc1ccc(OC(=O)c2ccc(NC(=N)N)cc2)cc1 [camostat mesilate] | – | – | 10 | – | –
4 | CC(=O)N[C@@H](CC1CCCCC1)C(=O)NC(CCCNC(=N)N)C(=O)c1nc2ccccc2s1 (stereo partly drawn) [Compound 32] | 17 | 440 | – | – | –
5 | CCCC(CCC)C(=O)N[C@@H](CC(=O)OC)C(=O)N1CCC[C@H]1C(=O)N[C@@H](CCCNC(=N)N)C(=O)c1nc2ccccc2s1 [Compound 26, N-(1-Oxo-2-propylpentyl)-L-α-aspartyl-N-[4-[(aminoiminomethyl)amino]-1-(2-benzothiazolylcarbonyl)butyl]-L-prolinamide, methyl ester] | 48 ± 1 | 110 ± 10 | – | – | –
6 | CN[C@H](Cc1ccccc1)C(=O)N1CCC[C@H]1C(=O)N[C@@H](Cc1cccc(C(=N)N)c1)C(=O)c1nc2ccccc2s1 [Compound 31, (S)—N-methyl-D-phenylalanyl-N-[1-[[3-(aminoiminomethyl)phenyl]methyl]-2-(2-benzothiazolyl)-2-oxoethyl]-L-prolinamide] | 240 | 290 ± 30 | – | – | –
7 | Cc1ccc(S(=O)(=O)N2CCC[C@H]2C(=O)NC(CCCNC(=N)N)C(=O)c2nc3ccccc3s2)cc1 (stereo partly drawn) [Compound 7, (2S)-N-[4-[(Aminoiminomethyl)amino]-1-(2-benzothiazolylcarbonyl)butyl]-1-[(4-methylphenyl)sulfonyl]-2-pyrrolidinecarboxamide] | 230 ± 110 | 1400 ± 800 | – | – | –
8 | N=C(N)NCCCC(NC(=O)[C@@H]1CCCN1C(=O)c1ccccc1)C(=O)c1nc2ccccc2s1 (stereo partly drawn) [Compound 34] | 46 | 340 | – | – | –
9 | CS(=O)(=O)N1C[C@H](O)C[C@H]1C(=O)NC(CCCNC(=N)N)C(=O)c1nc2ccccc2s1 (stereo partly drawn) [Compound 5, (2S,4R)-N-[4-[(aminoiminomethyl)amino]-1-(2-benzothiazolylcarbonyl)butyl]-4-hydroxy-1-methanesulfonyl-2-pyrrolidinecarboxamide] | 210 | 100 ± 10 | – | – | –
10 | CC(=O)NC1CCC(C(=O)NC(CCCNC(=N)N)C(=O)c2nc3ccccc3s2)CC1 (stereo not drawn) [Compound 17, 4-Acetamido-N-[4-[(aminoiminomethyl)amino]-1-(2-benzothiazolylcarbonyl)butyl]-cyclohexanecarboxamide] | 2400 | 9400 ± 5700 | – | – | –
11 | N=C(N)NCCC[C@H](NC(=O)CN1CCCC[C@H](NS(=O)(=O)Cc2ccccc2)C1=O)C(=O)c1nc2ccccc2s1 [Compound 28, (3S)N-[(1S)-4-[(Aminoiminomethyl)amino]-1-(2-benzothiazolylcarbonyl)butyl]hexahydro-2-oxo-3-[[(phenylmethyl)sulfonyl]amino]-1H-azepine-1-acetamide] | 42 ± 1 | 100 ± 40 | – | – | –
12 | CC(=O)N1C[C@H]2C[C@H]2C1C(=O)NC(CCCNC(=N)N)C(=O)c1nc2ccccc2s1 (stereo partly drawn) [Compound 8, (2S)-trans-3-Acetyl-N-[4-[(aminoiminomethyl)amino]-1-(2-benzothiazolylcarbonyl)butyl]-3-azabicyclo(3.1.0)hexane-2-carboxamide] | 190 | 110 ± 40 | – | – | –
13 | N=C(N)NCCCC(NC(=O)C1CCCCC1C(N)=O)C(=O)c1nc2ccccc2s1 (stereo not drawn) [Compound 16, N-[4-[(Aminoiminomethyl)amino]-1-(2-benzothiazolylcarbonyl)butyl]-1,2-cyclohexanedicarboxamide] | 160 | 180 ± 70 | – | – | –
14 | COC(=O)N1CCC[C@H]1C(=O)NC(CCCNC(=N)N)C(=O)c1nc2ccccc2s1 (stereo partly drawn) [Compound 11, (2S)-N-[4-[(Aminoiminomethyl)amino]-1-(2-benzothiazolylcarbonyl)butyl]-1,2-pyrrolidinedicarboxamide, 1-methyl ester] | 39 | 2400 ± 900 | – | – | –
15 | N=C(N)NCCC[C@H](NC(=O)[C@@H]1CCCN1C(=O)[C@@H](CC1CCCCC1)NCC(=O)O)C(=O)c1nc2ccccc2s1 [Compound 27, N-(Carboxymethyl)-3-cyclohexyl-D-alanyl-N-[(1S)-4-[(aminoiminomethyl)amino]-1-(2-benzothiazolylcarbonyl)butyl]-L-prolinamide] | 36 ± 1 | 34 ± 3 | – | – | –
16 | NC(=O)[C@@H]1CCCN1C(=O)[C@H](CCCN=C(N)N)NC(=O)c1ccc2ccccc2c1O [APC-366] | – | – | – | 33 | 21
17 | N=C(N)NCCCC(NC(=O)CCC(N)=O)C(=O)c1nc2ccccc2s1 (stereo not drawn) [Compound 23, N-[4-[(Aminoiminomethyl)amino]-1-(2-benzothiazolylcarbonyl)butyl]butanediamide] | 93 ± 68 | 260 ± 10 | – | – | –
18 | CC(=O)N[C@H](C(=O)NC(CCCNC(=N)N)C(=O)c1nc2ccccc2s1)C(C)C (stereo partly drawn) [Compound 33] | 19 | 180 ± 10 | – | – | –
19 | N=C(N)NCCC[C@H](NC(=O)[C@@H]1CCCN1C(=O)[C@H](CO)NS(=O)(=O)c1cccc2ccccc12)C(=O)c1nc2ccccc2s1 [Compound 29] | 58 ± 12 | 14 ± 5 | – | – | –
20 | CN[C@H](Cc1ccccc1)C(=O)N1CCC[C@H]1C(=O)N[C@@H](CC1CCCN(C(=N)N)C1)C(=O)c1nc2ccccc2s1 (stereo partly drawn) [Compound 30, N-Methyl-D-phenylalanyl-N-[(2S)-[1-(aminoiminomethyl)-3-piperidinyl]-1-(2-benzothiazolylcarbonyl)ethyl]-L-prolinamide] | 110 ± 70 | 36 ± 4 | – | – | –
21 | CS(=O)(=O)N1CCC[C@H]1C(=O)NC(CCCNC(=N)N)C(=O)c1nc2ccccc2s1 (stereo partly drawn) [Compound 6, (2S)-N-[4-[(aminoiminomethyl)amino]-1-(2-benzothiazolylcarbonyl)butyl]-1-methanesulfonyl-2-pyrrolidinecarboxamide] | 110 | 140 ± 80 | – | – | –
22 | CC(=O)N[C@H]1CCCN(CC(=O)NC(CCCNC(=N)N)C(=O)c2nc3ccccc3s2)C1=O (stereo partly drawn) [Compound 19, (S)-3-Acetamido-N-[4-[(aminoiminomethyl)amino]-1-(2-benzothiazolylcarbonyl)butyl]-2oxo-1-piperidineacetamide] | 320 | 12000 ± 5000 | – | – | –
